Measured values reported in patent US8895733B2 (Novartis AG, priority 2010, dated 2014).

Each compound was assayed against T1, Nav 1.7 (Homo sapiens, UniProt Q15858) (assay: Whole-cell voltage clamp electrophysiology, automated patch clamp (marker c in Table of Examples)). Details: marker c = Automated patch clamp data; read-out: Nav 1.7 activity.
T1 construct: expressed in transfected cells
Type: cell-based
Source text: a.IonWork Quattro data, b=Manual patch clamp data, c=Automated patch clamp data M=Method
Whole-Cell Voltage Clamp Electrophysiology Assay
Patch-clamp electrophysiology is considered the gold standard technique for investigation of ion channel function and pharmacology. Using this method, sodium channel currents can be measured in cells, which stably (or transiently) express the sodium channel subtype of interest. Application of compounds during such experiments provides a functional measure of the activity and potency of compounds affecting the ion channel of interest.
Electrophysiological studies can be performed using automated or manual patch-clamp techniques. Automated patch-clamp instruments suitable for this work include the Ion Works HT (MDS), Ion Works Quattro (MDS), PatchLiner (Nanion technologies), Port-A-Patch (Nanion technologies), QPatch (Sophion) or any other suitable platform.
For recording in automated patch-clamp instruments, cells expressing the voltage-gated sodium channel subtype of interest are dispensed in appropriate chips (plates with more than one recording chambers each containing one or more apertures to generate whole-cell patches), as provided by the manufacturer. Typically, the whole-cell perforated patch configuration is used for probing the pharmacology of compounds in automated patch-clamp electrophysiology on sodium channels. Extracellular and intracellular buffers for such experiments are composed according to the literature, or according to the instructions provided by the manufacturer of the instruments. Test solutions, which contain the compounds to be tested, are applied to the cells expressing the sodium channel of interest by a pipetting system, typically integrated into the robots.
A suitable voltage stimulus protocol is used to activate voltage-gated sodium channel proteins of interest. A typical stimulus protocol may consist of sweeps of sequential voltage pulses starting from a holding potential (i.e. −65 mV), to a more positive and depolarising test pulse potential (i.e. −10 mV) and finally to a more negative and hyperpolarising potential (i.e. −100 mV). According to the biophysics of the voltage-gated ion channel of interest and interest in channel configuration the voltages and durations of the pulses as well as the overall frequency of sweeps applied might vary. Accordingly, a stimulus protocol was designed to assess compounds due to their potential to block NaV1.7 channels primarily in inactivated state. Selectivity over other voltage-gated sodium channel members was assessed by protocols that reflect the native function of the channels (i.e. heart rate or firing of neurons).

T1 sequence (Q15858 whole entry): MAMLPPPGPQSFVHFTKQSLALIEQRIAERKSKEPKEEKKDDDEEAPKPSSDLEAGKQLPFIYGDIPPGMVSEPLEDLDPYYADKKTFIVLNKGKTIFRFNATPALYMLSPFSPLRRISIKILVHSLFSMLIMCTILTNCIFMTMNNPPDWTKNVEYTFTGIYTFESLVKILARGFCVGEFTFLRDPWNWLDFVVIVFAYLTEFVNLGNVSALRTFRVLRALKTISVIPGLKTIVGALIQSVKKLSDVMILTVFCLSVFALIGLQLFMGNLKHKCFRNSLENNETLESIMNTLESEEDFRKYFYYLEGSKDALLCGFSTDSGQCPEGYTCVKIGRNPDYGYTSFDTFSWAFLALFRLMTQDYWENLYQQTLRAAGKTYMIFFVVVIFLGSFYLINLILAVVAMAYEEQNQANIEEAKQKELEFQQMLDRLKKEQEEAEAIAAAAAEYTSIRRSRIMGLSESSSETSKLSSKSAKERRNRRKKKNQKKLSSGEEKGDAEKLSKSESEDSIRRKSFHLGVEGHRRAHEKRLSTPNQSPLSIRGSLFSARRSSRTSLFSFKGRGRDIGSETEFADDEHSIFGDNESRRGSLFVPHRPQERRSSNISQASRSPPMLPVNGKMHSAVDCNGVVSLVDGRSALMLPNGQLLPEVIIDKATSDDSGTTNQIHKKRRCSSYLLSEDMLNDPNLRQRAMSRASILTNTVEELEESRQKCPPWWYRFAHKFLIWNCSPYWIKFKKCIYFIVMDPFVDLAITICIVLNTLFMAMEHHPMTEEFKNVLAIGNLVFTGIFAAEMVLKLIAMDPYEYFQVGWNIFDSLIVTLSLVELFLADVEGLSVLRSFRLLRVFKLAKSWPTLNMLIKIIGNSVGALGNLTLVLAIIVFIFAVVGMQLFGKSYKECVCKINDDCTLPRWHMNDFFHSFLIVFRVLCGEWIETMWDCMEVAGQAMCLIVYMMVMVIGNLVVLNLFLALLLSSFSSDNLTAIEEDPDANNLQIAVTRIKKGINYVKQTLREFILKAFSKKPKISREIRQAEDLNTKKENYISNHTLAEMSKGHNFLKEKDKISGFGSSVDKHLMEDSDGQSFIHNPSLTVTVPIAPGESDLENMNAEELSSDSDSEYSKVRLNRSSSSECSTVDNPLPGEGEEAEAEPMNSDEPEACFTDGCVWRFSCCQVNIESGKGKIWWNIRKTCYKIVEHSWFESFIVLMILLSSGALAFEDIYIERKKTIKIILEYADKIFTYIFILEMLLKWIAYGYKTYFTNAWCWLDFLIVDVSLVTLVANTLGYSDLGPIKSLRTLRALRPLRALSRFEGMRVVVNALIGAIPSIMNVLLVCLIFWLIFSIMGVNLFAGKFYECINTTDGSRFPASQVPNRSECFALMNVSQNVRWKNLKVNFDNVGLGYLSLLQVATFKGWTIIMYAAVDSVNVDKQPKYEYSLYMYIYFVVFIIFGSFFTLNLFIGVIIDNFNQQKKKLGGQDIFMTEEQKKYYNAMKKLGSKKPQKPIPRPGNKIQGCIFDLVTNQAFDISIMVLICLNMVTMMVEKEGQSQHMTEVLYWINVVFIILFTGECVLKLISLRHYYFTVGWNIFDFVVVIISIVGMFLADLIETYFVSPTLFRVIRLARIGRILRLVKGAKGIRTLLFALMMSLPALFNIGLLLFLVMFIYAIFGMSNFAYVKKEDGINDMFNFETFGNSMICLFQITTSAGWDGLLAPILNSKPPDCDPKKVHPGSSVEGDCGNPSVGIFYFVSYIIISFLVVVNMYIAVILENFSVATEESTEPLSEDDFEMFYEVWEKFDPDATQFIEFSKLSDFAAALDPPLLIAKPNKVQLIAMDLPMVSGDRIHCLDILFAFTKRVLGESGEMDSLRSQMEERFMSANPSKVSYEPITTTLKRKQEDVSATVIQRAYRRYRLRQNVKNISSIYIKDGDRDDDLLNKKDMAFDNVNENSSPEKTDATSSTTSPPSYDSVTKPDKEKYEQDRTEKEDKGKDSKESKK

SMILES | IC50
CN(c1ccccc1)c1nc(N)nc(-c2noc(C3CN(Cc4ccccc4)C3)n2)n1 [Example 383, 6-[5-(1-benzylazetidin-3-yl)-1,2,4-oxadiazol-3-yl]-2-N-methyl-2-N-phenyl-1,3,5-triazine-2,4-diamine] | 1.54 µM
CN(c1ccccc1)c1nc(N)nc(-c2noc(C3CCN(S(=O)(=O)C4CC4)CC3)n2)n1 [Example 506, 6-{5-[1-(cyclopropanesulfonyl)piperidin-4-yl]-1,2,4-oxadiazol-3-yl}-2-N-methyl-2-N-phenyl-1,3,5-triazine-2,4-diamine] | 7.1 µM
CN(c1ccccc1)c1nc(N)nc(-c2noc(C3CCC(O)CC3)n2)n1 (stereo not shown) [Example 424, 4-(3-{4-amino-6-[methyl(phenyl)amino]-1,3,5-triazin-2-yl}-1,2,4-oxadiazol-5-yl)cyclohexan-1-ol] | 2.81 µM
CCC(C)S(=O)(=O)N1CCC(c2nc(-c3nc(N)nc(N(C)c4ccccc4)n3)no2)CC1 (stereo not shown) [Example 508, 6-{5-[1-(butane-2-sulfonyl)piperidin-4-yl]-1,2,4-oxadiazol-3-yl}-2-N-methyl-2-N-phenyl-1,3,5-triazine-2,4-diamine] | 2.43 µM
COC1CCN(c2nc(-c3nc(N)nc(Nc4cccc(F)c4)n3)no2)CC1 [Example 237, 2-N-(3-fluorophenyl)-6-[5-(4-methoxypiperidin-1-yl)-1,2,4-oxadiazol-3-yl]-1,3,5-triazine-2,4-diamine] | 3.99 µM
CN(c1ccccc1)c1nc(N)nc(-c2noc(-c3ncccc3OCC(F)(F)F)n2)n1 [Example 486, 2-N-methyl-2-N-phenyl-6-{5-[3-(2,2,2-trifluoroethoxy)pyridin-2-yl]-1,2,4-oxadiazol-3-yl}-1,3,5-triazine-2,4-diamine] | 1.22 µM
CN(c1ccccc1)c1nc(N)nc(-c2noc(-c3ccc(COCC(F)(F)F)o3)n2)n1 [Example 497, 2-N-methyl-2-N-phenyl-6-(5-{5-[(2,2,2-trifluoroethoxy)methyl]furan-2-yl}-1,2,4-oxadiazol-3-yl)-1,3,5-triazine-2,4-diamine] | 0.473 µM
CN(c1ccccc1)c1nc(N)nc(-c2noc(-c3ccc(C(=O)NCC(F)(F)F)nc3)n2)n1 [Example 280, 5-(3-{4-Amino-6-[methyl(phenyl)amino]-1,3,5-triazin-2-yl}-1,2,4-oxadiazol-5-yl)-N-(2,2,2-trifluoroethyl)pyridine-2-carboxamide] | 0.513 µM
CC(CC(F)(F)F)N1CCC(c2nc(-c3nc(N)nc(N(C)c4ccccc4)n3)no2)C1 (stereo not shown) [Example 205, 2-N-methyl-2-N-phenyl-6-{5-[1-(4,4,4-trifluorobutan-2-yl)pyrrolidin-3-yl]-1,2,4-oxadiazol-3-yl}-1,3,5-triazine-2,4-diamine] | 1.53 µM
Nc1nc(Nc2ccccc2)nc(-c2noc(C(=O)N3CCC(OCC(F)(F)F)CC3)n2)n1 [Example 457, 2-N-phenyl-6-(5-{[4-(2,2,2-trifluoroethoxy)piperidin-1-yl]carbonyl}-1,2,4-oxadiazol-3-yl)-1,3,5-triazine-2,4-diamine] | 1.3 µM
Nc1nc(Nc2ccccc2)nc(-c2noc(C(=O)N3CCC(SCC(F)(F)F)CC3)n2)n1 [Example 466, 2-N-phenyl-6-[5-({4-[(2,2,2-trifluoroethyl)sulfanyl]piperidin-1-yl}carbonyl)-1,2,4-oxadiazol-3-yl]-1,3,5-triazine-2,4-diamine] | 0.741 µM
CN(c1ccccc1)c1nc(N)nc(-c2noc(-c3cc(C(F)(F)F)[nH]n3)n2)n1 [Example 255, 2-N-methyl-2-N-phenyl-6-{5-[5-(trifluoromethyl)-1H-pyrazol-3-yl]-1,2,4-oxadiazol-3-yl}-1,3,5-triazine-2,4-diamine] | 6.45 µM

Other lines, results leading:

IC50 | SMILES
8.45 µM | CN(c1ccccc1)c1nc(N)nc(-c2noc(-c3ccc(=O)[nH]c3)n2)n1 [Example 334, 5-(3-{4-amino-6-[methyl(phenyl)amino]-1,3,5-triazin-2-yl}-1,2,4-oxadiazol-5-yl)-1,2-dihydropyridin-2-one]
5.87 µM | COc1cc(-c2nc(-c3nc(N)nc(Nc4ccccc4)n3)no2)ccn1 [Example 239, 6-[5-(2-methoxypyridin-4-yl)-1,2,4-oxadiazol-3-yl]-2-N-phenyl-1,3,5-triazine-2,4-diamine]
9.25 µM | Nc1nc(Nc2ccccc2)nc(-c2noc(C(=O)N3Cc4ccccc4C3)n2)n1 [Example 230, 6-{5-[(2,3-dihydro-1H-isoindol-2-yl)carbonyl]-1,2,4-oxadiazol-3-yl}-2-N-phenyl-1,3,5-triazine-2,4-diamine]
0.774 µM | Nc1nc(Nc2cccc(Cl)c2F)nc(-c2noc(-c3ccccn3)n2)n1 [Example 264, 2-N-(3-Chloro-2-fluorophenyl)-6-[5-(pyridin-2-yl)-1,2,4-oxadiazol-3-yl]-1,3,5-triazine-2,4-diamine]
0.435 µM | Nc1nc(Nc2cc(Cl)ccc2F)nc(-c2noc(-c3ccccn3)n2)n1 [Example 325, 2-N-(5-chloro-2-fluorophenyl)-6-[5-(pyridin-2-yl)-1,2,4-oxadiazol-3-yl]-1,3,5-triazine-2,4-diamine]
0.401 µM | Nc1nc(Nc2ccccc2)nc(-c2noc(C(=O)NC3CCC3)n2)n1 [Example 228, 3-[4-amino-6-(phenylamino)-1,3,5-triazin-2-yl]-N-cyclobutyl-1,2,4-oxadiazole-5-carboxamide]

Same assay, conditions: marker c: Automated patch clamp data; read-out: Nav 1.7 activity

SMILES | IC50
COCC1CCN(c2nc(-c3nc(N)nc(N(C)c4ccccc4)n3)no2)CC1 [Example 165, 6-{5-[4-(methoxymethyl)piperidin-1-yl]-1,2,4-oxadiazol-3-yl}-2-N-methyl-2-N-phenyl-1,3,5-triazine-2,4-diamine] | 7.69 µM
CN(c1nc(N)nc(-c2noc(-c3ccc(OCC4CC4)nc3)n2)n1)c1cccc(F)c1F [Example 140, 6-{5-[6-(cyclopropylmethoxy)pyridin-3-yl]-1,2,4-oxadiazol-3-yl}-2-N-(2,3-difluorophenyl)-2-N-methyl-1,3,5-triazine-2,4-diamine] | 0.085 µM
CN(c1ccccc1)c1nc(N)nc(-c2noc(N3CCC(CS(=O)(=O)c4ccccc4)CC3)n2)n1 [Example 179, 6-(5-{4-[(benzenesulfonyl)methyl]piperidin-1-yl}-1,2,4-oxadiazol-3-yl)-2-N-methyl-2-N-phenyl-1,3,5-triazine-2,4-diamine] | 0.81 µM
CN(c1ccccc1)c1nc(N)nc(-c2noc(C3CCN(Cc4ccccc4)CC3)n2)n1 [Example 173, 6-[5-(1-Benzylpiperidin-4-yl)-1,2,4-oxadiazol-3-yl]-2-N-methyl-2-N-phenyl-1,3,5-triazine-2,4-diamine] | 1 µM
COc1ccccc1-c1nc(-c2nc(N)nc(N(C)c3ccccc3F)n2)no1 [Example 89, N-(2-Fluoro-phenyl)-6-[5-(2-methoxy-phenyl)-[1,2,4]oxadiazol-3-yl]-N-methyl-[1,3,5]triazine-2,4-diamine] | 0.2 µM

Other lines, results leading:

IC50 | SMILES
0.318 µM | COc1ccccc1-c1nc(-c2nc(N)nc(N(C)c3cccc(F)c3)n2)no1 [Example 98, N-(3-Fluoro-phenyl)-6-[5-(2-methoxy-phenyl)-[1,2,4]oxadiazol-3-yl]-N-methyl-[1,3,5]triazine-2,4-diamine]
0.855 µM | Cc1cc(-c2nc(-c3nc(N)nc(N(C)c4ccccc4)n3)no2)n[nH]1 [Example 58, N-Methyl-6-[5-(5-methyl-1H-pyrazol-3-yl)-[1,2,4]oxadiazol-3-yl]-N-phenyl-[1,3,5]triazine-2,4-diamine]
